Literature values in patent US9005185B2, “Nanochanneled device and related methods” (The Board of Regents of the University of Texas System, priority 2008, dated 2015).

Molecular target: T1, Aromatase (Homo sapiens, UniProt P11511)
T1 sequence (P11511 1-503): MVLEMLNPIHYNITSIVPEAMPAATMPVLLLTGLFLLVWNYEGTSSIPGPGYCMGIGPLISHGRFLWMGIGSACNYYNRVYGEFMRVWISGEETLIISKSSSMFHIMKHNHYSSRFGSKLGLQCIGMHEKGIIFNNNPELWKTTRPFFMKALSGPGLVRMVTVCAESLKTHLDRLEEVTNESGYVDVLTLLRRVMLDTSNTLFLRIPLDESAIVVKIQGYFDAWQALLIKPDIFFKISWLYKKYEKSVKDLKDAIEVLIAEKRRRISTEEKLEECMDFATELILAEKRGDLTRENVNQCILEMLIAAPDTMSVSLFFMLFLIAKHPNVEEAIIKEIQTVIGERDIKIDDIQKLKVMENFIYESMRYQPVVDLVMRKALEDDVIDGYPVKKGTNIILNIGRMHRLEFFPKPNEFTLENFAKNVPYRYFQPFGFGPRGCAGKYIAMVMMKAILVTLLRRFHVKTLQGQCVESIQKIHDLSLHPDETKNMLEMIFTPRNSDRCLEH

## N#Cc1ccc(C(c2ccc(C#N)cc2)n2cncn2)cc1 [letrozole]
  inhibits estrogen biosynthesis: approximately 99%
